Data: patent publication US20220213047A1, “CARBONIC ANHYDRASE INHIBITORS FOR TREATMENT OF NEISSERIA GONORRHOEAE INFECTION” (Purdue Research Foundation, priority 2021, published 2022)
Values after ≈ are worked out from the molar mass of the structure shown. Where two headings read alike, the source gives them in different places.

Columns and labels:
N. gonorrhoeae [1] = assay: MIC by agar dilution on a larger panel of N. gonorrhoeae strains; format: cell-based, Neisseria gonorrhoeae; details: for MIC / MIC50 / MIC90: Neisseria gonorrhoeae; for Original MIC: in brackets in Table 8
Description: These tests were performed in normal culture conditions with standard CO2 levels and in CO2 (5% in incubator) conditions.

Lactobacillus sp = assay: MIC50 against pathogenic and commensal bacteria: Lactobacillus sp; format: cell-based; details: Lactobacillus sp (12 strains); normal
From the text: (§1) We have shown that CAIs display a narrow-spectrum of activity (Table 6). We have previously shown that CAIs have potential as anti-enterococcal agents for decolonization of the gut and treating systemic vancomycin-resistant enterococci (VRE) infections without affecting commensal strains common in the human microbiome or other pathogenic bacteria. […] The extremely narrow spectrum of this class of inhibitors would be a positive for clinical use as the molecules: 1) would not have deleterious effects on normal microbiota, and 2) would have less opportunity for resistance to arise to other important pathogenic strains aside from VRE.

Bifidobacterium sp = assay: MIC50 against pathogenic and commensal bacteria: Bifidobacterium sp; format: cell-based; details: Bifidobacterium sp (18 strains); normal
From the text: as §1

Bacteroides = assay: MIC50 against pathogenic and commensal bacteria: Bacteroides; format: cell-based; details: Bacteroides (9 strains); normal
From the text: as §1

L. crispatus = assay: MIC50 against pathogenic and commensal bacteria: L. crispatus; format: cell-based; details: Lactobacillus crispatus; L. crispatus (2 strains); normal
From the text: as §1

L. rhamnosus = assay: MIC50 against pathogenic and commensal bacteria: L. rhamnosus; format: cell-based; details: Lacticaseibacillus rhamnosus; L. rhamnosus (1 strain); normal
From the text: as §1

L. johnsonii = assay: MIC50 against pathogenic and commensal bacteria: L. johnsonii; format: cell-based; details: Lactobacillus johnsonii; L. johnsonii (1 strain); normal
From the text: as §1

E. coli = assay: MIC50 against pathogenic and commensal bacteria: E. coli; format: cell-based; details: Escherichia coli; E. coli (8 strains); normal
From the text: as §1

S. aureus = assay: MIC50 against pathogenic and commensal bacteria: S. aureus; format: cell-based; details: Staphylococcus aureus; S. aureus (12 strains); normal
From the text: as §1

S. epidermidis = assay: MIC50 against pathogenic and commensal bacteria: S. epidermidis; format: cell-based; details: Staphylococcus epidermidis; S. epidermidis (3 strains); normal
From the text: as §1

S. pneumoniae = assay: MIC50 against pathogenic and commensal bacteria: S. pneumoniae; format: cell-based; details: Streptococcus pneumoniae; S. pneumoniae (4 strains); normal
From the text: as §1

E. coli TolC mutant = assay: MIC50 against pathogenic and commensal bacteria: E. coli TolC mutant; format: cell-based; details: Escherichia coli
From the text: as §1

Enterobacter spp. = assay: MIC50 against pathogenic and commensal bacteria: Enterobacter spp.; format: cell-based; details: Enterobacter spp. (4 strains); normal
From the text: as §1

N. gonorrhoeae [2] = assay: Post-antibiotic effect (PAE); format: cell-based; details: after exposure to 10×MIC for 1 hour
N. gonorrhoeae [3] = assay: Checkerboard assay, synergy with AZI; format: cell-based; details: combination with AZI, standard checkerboard assay
From the text: CAIs work synergistically with approved antibiotics—Dual therapy with ceftriaxone and azithromycin is the recommended approach to treat infections caused by N. gonorrhoeae. The use of two antibiotics in conjunction is thought to curb the rapid emergence of resistance to either antibiotic, if used alone. Thus, we investigated the potential of CAIs to be used in combination with other antibiotics against N. gonorrhoeae^56 (FIG. 5).

[4] = strain panel of Table 9, CO2 (5% CO2 containing air)

**Q.** `CCOc1ccc2nc(S(N)(=O)=O)sc2c1` [Ethoxzolamide] was tested. Which MIC (N. gonorrhoeae [1]; N. gonorrhoeae 197, CO2 (5% CO2 containing air), read-out: MIC) did it give?
**A.** 128 µg/mL (≈ 496 µM)

**Q.** What about the MIC (N. gonorrhoeae [1]; N. gonorrhoeae 197, Non CO2 (ambient air), read-out: MIC) of the same compound?
**A.** 0.25 µg/mL (≈ 0.968 µM)

**Q.** What about the MIC (N. gonorrhoeae [1]; N. gonorrhoeae 198, CO2 (5% CO2 containing air), read-out: MIC) of the same compound?
**A.** > 128 µg/mL

**Q.** And the MIC (N. gonorrhoeae [1]; N. gonorrhoeae 198, Non CO2 (ambient air), read-out: MIC)?
**A.** 0.25 µg/mL (≈ 0.968 µM)

**Q.** What about the MIC (N. gonorrhoeae [1]; N. gonorrhoeae 200, CO2 (5% CO2 containing air), read-out: MIC) of the same compound?
**A.** > 128 µg/mL

**Q.** What about the MIC (N. gonorrhoeae [1]; N. gonorrhoeae 200, Non CO2 (ambient air), read-out: MIC) of the same compound?
**A.** 0.25 µg/mL (≈ 0.968 µM)

**Q.** What about the MIC (N. gonorrhoeae [1]; N. gonorrhoeae 202, CO2 (5% CO2 containing air), read-out: MIC) of the same compound?
**A.** 128 µg/mL (≈ 496 µM)

**Q.** What about the MIC (N. gonorrhoeae [1]; N. gonorrhoeae 202, Non CO2 (ambient air), read-out: MIC) of the same compound?
**A.** 0.06 µg/mL (≈ 0.232 µM)

**Q.** What about the MIC (N. gonorrhoeae [1]; N. gonorrhoeae 203, CO2 (5% CO2 containing air), read-out: MIC) of the same compound?
**A.** 64 µg/mL (≈ 248 µM)

**Q.** What about the MIC (N. gonorrhoeae [1]; N. gonorrhoeae 205, CO2 (5% CO2 containing air), read-out: MIC) of the same compound?
**A.** 128 µg/mL (≈ 496 µM)

**Q.** And the MIC (N. gonorrhoeae [1]; N. gonorrhoeae 206, CO2 (5% CO2 containing air), read-out: MIC)?
**A.** > 128 µg/mL

**Q.** What about the MIC (N. gonorrhoeae [1]; N. gonorrhoeae 207, CO2 (5% CO2 containing air), read-out: MIC) of the same compound?
**A.** 64 µg/mL (≈ 248 µM)

**Q.** What about the MIC (N. gonorrhoeae [1]; N. gonorrhoeae 208, CO2 (5% CO2 containing air), read-out: MIC) of the same compound?
**A.** > 128 µg/mL

**Q.** What about the MIC (N. gonorrhoeae [1]; N. gonorrhoeae 209, CO2 (5% CO2 containing air), read-out: MIC) of the same compound?
**A.** > 128 µg/mL

**Q.** What about the MIC (N. gonorrhoeae [1]; N. gonorrhoeae 209, Non CO2 (ambient air), read-out: MIC) of the same compound?
**A.** 0.06 µg/mL (≈ 0.232 µM)

**Q.** And the MIC (N. gonorrhoeae [1]; N. gonorrhoeae 210, CO2 (5% CO2 containing air), read-out: MIC)?
**A.** 64 µg/mL (≈ 248 µM)

**Q.** And the MIC (N. gonorrhoeae [1]; N. gonorrhoeae 211, CO2 (5% CO2 containing air), read-out: MIC)?
**A.** 64 µg/mL (≈ 248 µM)

**Q.** What about the MIC (N. gonorrhoeae [1]; N. gonorrhoeae 211, Non CO2 (ambient air), read-out: MIC) of the same compound?
**A.** 0.5 µg/mL (≈ 1.94 µM)

**Q.** What about the MIC (N. gonorrhoeae [1]; N. gonorrhoeae 212, CO2 (5% CO2 containing air), read-out: MIC) of the same compound?
**A.** 64 µg/mL (≈ 248 µM)

**Q.** What about the MIC (N. gonorrhoeae [1]; N. gonorrhoeae 212, Non CO2 (ambient air), read-out: MIC) of the same compound?
**A.** 0.25 µg/mL (≈ 0.968 µM)

**Q.** What about the MIC (N. gonorrhoeae [1]; N. gonorrhoeae 213, CO2 (5% CO2 containing air), read-out: MIC) of the same compound?
**A.** 64 µg/mL (≈ 248 µM)

**Q.** What about the MIC (N. gonorrhoeae [1]; N. gonorrhoeae 214, CO2 (5% CO2 containing air), read-out: MIC) of the same compound?
**A.** 64 µg/mL (≈ 248 µM)

**Q.** And the MIC (N. gonorrhoeae [1]; N. gonorrhoeae 214, Non CO2 (ambient air), read-out: MIC)?
**A.** 0.25 µg/mL (≈ 0.968 µM)

**Q.** And the MIC50 (N. gonorrhoeae [1]; N. gonorrhoeae (39 strains), CO2 (5% CO2 in the incubator))?
**A.** > 128 µg/mL

**Q.** What about the MIC50 (N. gonorrhoeae [1]; [4]) of the same compound?
**A.** > 128 µg/mL

**Q.** And the MIC90 (N. gonorrhoeae [1]; [4])?
**A.** > 128 µg/mL

**Q.** What about the MIC (N. gonorrhoeae [1]; strain panel of Table 9, CO2 (5% CO2 containing air), read-out: Modal MIC) of the same compound?
**A.** > 128 µg/mL

**Q.** And the MIC90 (N. gonorrhoeae [1]; strain panel of Table 9, Non CO2 (ambient air, standard CO2 conditions))?
**A.** 0.5 µg/mL (≈ 1.94 µM)

**Q.** And the Original MIC (N. gonorrhoeae [1]; Ng 197)?
**A.** 0.25 µg/mL

**Q.** And the Original MIC (N. gonorrhoeae [1]; Ng 202)?
**A.** 0.06 µg/mL

**Q.** What about the MIC50 (Lactobacillus sp) of the same compound?
**A.** > 256 µg/mL

**Q.** What about the MIC50 (Bifidobacterium sp) of the same compound?
**A.** > 256 µg/mL

**Q.** What about the MIC50 (Bacteroides) of the same compound?
**A.** > 256 µg/mL

**Q.** What about the MIC50 (L. crispatus) of the same compound?
**A.** > 256 µg/mL

**Q.** And the MIC50 (L. rhamnosus)?
**A.** > 256 µg/mL

**Q.** And the MIC50 (L. johnsonii)?
**A.** > 256 µg/mL

**Q.** And the MIC50 (E. coli)?
**A.** > 256 µg/mL

**Q.** What about the MIC50 (S. aureus) of the same compound?
**A.** > 256 µg/mL

**Q.** What about the MIC50 (S. epidermidis) of the same compound?
**A.** > 256 µg/mL

**Q.** What about the MIC50 (S. pneumoniae) of the same compound?
**A.** > 512 µg/mL

**Q.** What about the MIC50 (E. coli TolC mutant) of the same compound?
**A.** > 256 µg/mL

**Q.** What about the MIC50 (Enterobacter spp.) of the same compound?
**A.** > 256 µg/mL

**Q.** And the PAE (N. gonorrhoeae [2]; Ng 181)?
**A.** 10 h

**Q.** And the PAE (N. gonorrhoeae [2]; Ng 186)?
**A.** 10 h

**Q.** What about the PAE (N. gonorrhoeae [2]; Ng 194) of the same compound?
**A.** 10 h

**Q.** What about the PAE (N. gonorrhoeae [2]; Ng 198) of the same compound?
**A.** 10 h

**Q.** And the PAE (N. gonorrhoeae [2]; clinical isolates of N. gonorrhoeae)?
**A.** 10 h

**Q.** And the FIC (N. gonorrhoeae [3])?
**A.** 0.240
